Among the data in patent US10370352B2, “Cyclobutyl-imidazolidinone compounds” (Eli Lilly and Company, priority 2017, dated 2019) are IC50 and Efficacy values, retold here.

The target of experiment [1] is recombinant human ASK1 (hASK1) catalytic domain (Homo sapiens (Human), UniProt Q99683). Description: ASK1 enzymatic assay (ADP-Glo Kinase Assay). The experiment is classed as biochemical. As to conditions: for IC50: hASK1 0.25 nM, MKK6 300 nM, ATP 100 μM, mean ± standard deviation; for Efficacy: hASK1 enzymatic assay, standard benzamide ASK1 inhibitor = 100% inhibition, DMSO = 0%. The source says: The purpose of this assay is to determine the effect of ASK1 inhibitors on the production of ADP by ASK1. The recombinant human ASK1 (hASK1) catalytic domain tagged with Glutathione S-transferase is used, and histidine-tagged full-length human MAP kinase kinase 6 (MKK6) and ATP are the substrate and cofactor, respectively.
Sequence of recombinant human ASK1 (hASK1) catalytic domain (Q99683 680-938): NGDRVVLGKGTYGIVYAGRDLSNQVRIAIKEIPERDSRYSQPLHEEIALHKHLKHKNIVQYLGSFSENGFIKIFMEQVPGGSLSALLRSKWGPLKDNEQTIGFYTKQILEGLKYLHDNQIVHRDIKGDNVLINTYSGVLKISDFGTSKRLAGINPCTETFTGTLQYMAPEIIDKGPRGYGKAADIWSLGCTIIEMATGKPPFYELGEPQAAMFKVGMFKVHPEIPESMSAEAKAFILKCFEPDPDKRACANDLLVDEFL
The assay is done using an ADP-Glo™ Kinase Assay Kit (Promega, Catalog #V9102) according to the manufacturer's protocol with the following modifications. Briefly, hASK1 (0.25 nM) and MKK6 (300 nM) in a buffer (10 mM MOPS pH 7.0; 10 mM Mg-Acetate; 1 mM DTT; 0.025% NP-40; 0.05% BSA; 1.5% glycerol) are incubated with ASK1 inhibitors at varying concentrations ranging from 10.00 μM to 0.17 nM for 15 minutes, followed by incubation with ATP (100 μM) for 30 minutes at room temperature. ADP-Glo™ Reagent is added to terminate the kinase reaction and deplete the remaining ATP. The Kinase Detection Reagent is then added to convert ADP to ATP. The newly synthesized ATP is measured using a luciferase/luciferin reaction, and the luminescence determined by Envision (PerkinElmer). The luminescence intensities are analyzed by GeneData, and fit to a 4 parameter dose response-inhibitor logistics curve to determine IC50 values, using the effects of 5-(4-cyclopropyl-1H-imidazol-1-yl)-2-fluoro-4-methyl-N-{6-[4-(propan-2-yl)-4H-1,2,4-triazol-3-yl]pyridin-2-yl}benzamide as a standard and DMSO vehicle for 100% and 0% inhibition, respectively.

The target in another experiment is human ASK1 (Homo sapiens (Human), UniProt Q99683). As to the kind of experiment: ASK1 autophosphorylation (Thr838) assay in HEK293 cells overexpressing human ASK1. As to conditions: for IC50: H2O2-stimulated (1 mM, 10 min) ASK1 autophosphorylation at Thr838, HEK293 cells, HTRF, mean ± standard deviation, read-out: HEK pASK1 IC50; for Efficacy: HEK pASK1 assay, standard benzamide ASK1 inhibitor = 100% inhibition, DMSO = 0%. The experiment is classed as cell-based.
Sequence of human ASK1 (Q99683 whole entry): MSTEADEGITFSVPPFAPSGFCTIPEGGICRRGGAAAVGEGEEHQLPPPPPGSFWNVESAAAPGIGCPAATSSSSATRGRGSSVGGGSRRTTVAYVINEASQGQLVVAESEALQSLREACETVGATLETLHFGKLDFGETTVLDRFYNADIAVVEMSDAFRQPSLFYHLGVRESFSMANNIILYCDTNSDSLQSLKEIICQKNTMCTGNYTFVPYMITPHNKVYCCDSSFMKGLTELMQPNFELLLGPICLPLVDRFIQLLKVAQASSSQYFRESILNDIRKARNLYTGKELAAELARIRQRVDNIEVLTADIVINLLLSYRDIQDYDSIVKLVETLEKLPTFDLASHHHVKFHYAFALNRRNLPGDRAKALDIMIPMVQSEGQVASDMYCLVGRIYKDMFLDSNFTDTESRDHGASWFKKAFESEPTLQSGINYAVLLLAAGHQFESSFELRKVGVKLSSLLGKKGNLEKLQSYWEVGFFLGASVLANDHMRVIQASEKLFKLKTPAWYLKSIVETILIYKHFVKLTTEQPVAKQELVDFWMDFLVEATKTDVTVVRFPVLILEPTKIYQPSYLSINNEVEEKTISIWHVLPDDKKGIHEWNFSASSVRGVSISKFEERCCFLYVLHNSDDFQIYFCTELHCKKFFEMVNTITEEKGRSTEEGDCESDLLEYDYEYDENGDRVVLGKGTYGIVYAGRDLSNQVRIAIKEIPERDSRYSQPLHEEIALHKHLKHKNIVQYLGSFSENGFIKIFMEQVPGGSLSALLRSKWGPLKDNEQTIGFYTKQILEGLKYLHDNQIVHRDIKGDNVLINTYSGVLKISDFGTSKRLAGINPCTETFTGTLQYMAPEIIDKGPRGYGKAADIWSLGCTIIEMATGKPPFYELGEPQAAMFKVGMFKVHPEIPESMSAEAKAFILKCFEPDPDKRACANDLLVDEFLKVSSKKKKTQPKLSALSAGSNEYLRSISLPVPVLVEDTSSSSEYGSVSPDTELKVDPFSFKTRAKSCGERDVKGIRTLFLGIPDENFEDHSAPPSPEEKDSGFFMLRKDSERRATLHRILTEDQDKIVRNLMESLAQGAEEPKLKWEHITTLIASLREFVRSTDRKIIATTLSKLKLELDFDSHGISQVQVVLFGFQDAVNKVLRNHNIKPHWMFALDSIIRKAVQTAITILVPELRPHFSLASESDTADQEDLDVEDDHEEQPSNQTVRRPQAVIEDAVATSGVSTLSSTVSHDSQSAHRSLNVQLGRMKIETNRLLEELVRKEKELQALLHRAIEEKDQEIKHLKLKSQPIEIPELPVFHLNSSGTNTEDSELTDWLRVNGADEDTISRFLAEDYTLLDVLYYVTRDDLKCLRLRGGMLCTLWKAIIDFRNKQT

The structures appear in SMILES notation.

Turning to `Cc1ncc(C2CC(N3CCN(c4cccc(-c5nncn5C(C)C)n4)C3=O)C2)cn1` (single isomer, unassigned) [Example 9, 1-(6-(4-Isopropyl-4H-1,2,4-triazol-3-yl)pyridin-2-yl)-3-(3-(2-methylpyrimidin-5-yl)cyclobutyl)imidazolidin-2-one], in experiment [1], the half-inhibitory concentration (IC50) came out at 6.21 ± 4.18 nM and the Efficacy is 100%.
For `CC(C)n1cnnc1-c1cccc(N2CCN(C3CC(n4cnc(C5CC5)c4)C3)C2=O)n1` (single isomer, unassigned) [Example 2, 1-[3-(4-Cyclopropylimidazol-1-yl)cyclobutyl]-3-[6-(4-isopropyl-1,2,4-triazol-3-yl)-2-pyridyl]imidazolidin-2-one], in experiment [1], the concentration for half-maximal inhibition (IC50) was 1.47 ± 0.6 nM and the Efficacy worked out at 100%. Moreover, on human ASK1, the IC50 stood at 48.8 ± 19.1 nM and the Efficacy was 105%.
On to `CC(C)n1cnnc1-c1cccc(N2CCN(C3CC(n4cnc(C(C)(C)C)c4)C3)C2=O)n1` (stereo not drawn) [Example 5, 1-(3-(4-(tert-Butyl)-1H-imidazol-1-yl)cyclobutyl)-3-(6-(4-isopropyl-4H-1,2,4-triazol-3-yl)pyridin-2-yl)imidazolidin-2-one], for which, in experiment [1], the IC50 came to 1.84 ± 0.64 nM and the Efficacy turned out to be 100%.
`CC(C)n1cnnc1-c1cccc(N2CCN(C3CC(n4cnc(C5CC5)n4)C3)C2=O)n1` (stereo not drawn) [Example 4, 1-[3-(3-Cyclopropyl-1,2,4-triazol-1-yl)cyclobutyl]-3-[6-(4-isopropyl-1,2,4-triazol-3-yl)-2-pyridyl]imidazolidin-2-one]: in experiment [1], the 50% inhibitory concentration (IC50) stood at 2.56 ± 0.68 nM and the Efficacy was 100%. Besides, at human ASK1, the 50% inhibitory concentration (IC50) turned out to be 108 nM and the Efficacy amounted to 99%.
Taken in the same sequence, the figures for `Cc1ccc(C2CC(N3CCN(c4cccc(-c5nncn5C(C)C)n4)C3=O)C2)cn1` (single isomer, unassigned) [Example 8, 1-[6-(4-Isopropyl-1,2,4-triazol-3-yl)-2-pyridyl]-3-[3-(6-methyl-3-pyridyl)cyclobutyl]imidazolidin-2-one] were 5.26 ± 0.72 nM, 100%, 235 nM and 97.5%.
On the same counts, the results for `CC(C)n1cnnc1-c1cccc(N2CCN(C3CC(n4cnc(C(F)(F)F)c4)C3)C2=O)n1` (stereo not drawn) [Example 3, 1-(6-(4-Isopropyl-4H-1,2,4-triazol-3-yl)pyridin-2-yl)-3-(3-(4-(trifluoromethyl)-1H-imidazol-1-yl)cyclobutyl)imidazolidin-2-one] are 2.8 ± 0.97 nM, 100%, 126 nM and 98.5%.
Taken in the same sequence, the figures for `CC(C)n1cc(C2CC(N3CCN(c4cccc(-c5nncn5C(C)C)n4)C3=O)C2)cn1` (stereo not drawn) [Example 6, 1-[3-(1-Isopropylpyrazol-4-yl)cyclobutyl]-3-[6-(4-isopropyl-1,2,4-triazol-3-yl)-2-pyridyl]imidazolidin-2-one] were 2.17 ± 0.45 nM, 100%, 27.1 nM and 102%.
